≈ marks a conversion by molar mass, not a printed value. Entries after “also recorded” stand apart in the source; their conditions may differ.
Assays:
[1] = water solubility (of the protonated forms); type: physicochemical
Protocol: 6-FCDCA has been submitted to a series of physico-chemical determinations following a previously described protocol. Particularly, the lypophilicity, detergency, water solubility and pKa were measured. | rK' = relative values Water solubility of the protonated forms Data on water solubility are reported on the enclosed table 1.

[2] = detergency, critical micellar concentration; type: physicochemical; conditions: for CMC: Table 1
Protocol: (§1) 6-FCDCA has been submitted to a series of physico-chemical determinations following a previously described protocol. Particularly, the lypophilicity, detergency, water solubility and pKa were measured.

[3] = lypophilicity by C/18 reverse phase HPLC; type: physicochemical; conditions: for rK' C-18: rK' = relative values, C-18 reverse phase HPLC
Protocol: as §1

pKa = type: physicochemical
Text: 6-FCDCA has been submitted to a series of physico-chemical determinations following a previously described protocol.

human stools = type: in vitro ADME

SMILES	water solubility compared with CDCA [1]	solubility ([1]; water)	critical micellar concentration [2]	CMC [2]	lypophilicity compared with natural analogues ([3]; C/18 reverse phase HPLC, result in words)	rK' C-18 [3]	pKa (pKa)	protection of the 7-hydroxy group from oxidation and 7-dehydroxylation (human stools)	stability to intestinal bacteria compared with CDCA (human stools)	water solubility [1]	S (water solubility) ([1]; protonated forms, Table 1)
C[C@H](CCC(=O)O)[C@H]1CC[C@H]2[C@@H]3[C@H](O)C(F)[C@H]4C[C@H](O)CC[C@]4(C)[C@H]3CC[C@]12C (stereo partly drawn) [Example 6-FCDCA, 3α,7α-Dihydroxy-6-fluoro-5α-cholan-24-oic acid]	slightly higher than that of CDCA	80 µM (≈ 32.8 µg/mL)	10 mmol/L	10 mmol/1	lower when compared with CDCA; also recorded: intermediate between CDCA and UDCA; also recorded: less lypohilic than CDCA	0.6	5	efficaciously protects the hydroxy group in 7-position to oxidation and 7-dehydroxylation	more stable to intestinal bacteria	–	–
C[C@H](CCC(=O)O)[C@H]1CC[C@H]2[C@@H]3[C@@H](O)C[C@@H]4C[C@H](O)CC[C@]4(C)[C@H]3CC[C@]12C [UDCA, ursodeoxycholic, reference compound]	–	–	–	–	–	0.4	–	–	–	–	–
C[C@H](CCC(=O)O)[C@H]1CC[C@H]2[C@@H]3[C@H](O)C[C@@H]4C[C@H](O)CC[C@]4(C)[C@H]3CC[C@]12C [CDCA, chenodeoxycholic, reference compound]	–	–	–	9 mmol/1	–	0.89	–	–	–	30 µmol	30 µmol/L

Source: patent US5175320A, “Fluorinated bile acid derivatives, processes for the preparation thereof and pharmaceutical compositions containing them” (Giuliani S.p.A., priority 1989, dated 1992)
